Experimental data published in patent publication EP0332387B1, “Triazole derivatives, their preparation and their use as fungicides” (Sankyo Company Limited, priority 1988, dated 1989).

Assays:
Format in all cases: in vivo
[1] = system: Pyricularia oryzae; settings: rice seedlings (variety Sachikaze), sprayed 24 hours after inoculation at 10 ppm (30 ml/3 pots), further 6 days; number of lesions on the upper two leaves
[2] = system: Rhizoctonia solani; test: Curative activity against sheath blight of rice plants (Experiment 3); parameters: key: 0 = disease as untreated, 5 = no disease (complete control); settings: rice seedlings (variety Nihonbare), sprayed 24 hours after inoculation at 10 ppm (30 ml/3 pots), further 5 days; height of the lesions
Method: Rice seedlings (variety Nihonbare) at the 4 - 5 leaf stage were inoculated with the fungus, Rhizoctonia solani, by placing 4 - 5 oat grains on which the fungus had previously been cultured around the base of each rice seedling and keeping them in a moist chamber at 25 - 27 °C. After 24 hours, the rice seedlings were sprayed with an aqueous suspension of the test compound at a concentration of 10 ppm (30 ml/3 pots) and they then continued to be kept in the moist chamber for a further 5 days. The disease controlling index was given on the basis of the height of the lesions formed on the rice seedlings.
(§1) The compounds tested have the formula (1-1), in which Ar represents the group shown at the beginning of each part of the Table and R^1, R^2, X and Y are as defined in the Table.
(§2) The disease controlling index shown in the foregoing Tables 11 to 19 is indicated by the following codes: • 5--no disease (complete control) • 4--disease rate is less than 10% of the untreated plant • 3--disease rate is 10% - 30% of the untreated plant • 2--disease rate is 30% - 50% of the untreated plant • 1--disease rate is 50% - 70% of the untreated plant • 0--disease rate is almost same as the untreated plant.

[3] = system: Rhizoctonia solani; test: Preventive activity against sheath blight of rice plants by submerged application (Experiment 4); settings: rice seedlings (variety Nihonbare), applied to the water in the pots, 100 g per 10 ares, inoculated after 7 days, 5 days; height of the lesions
Description: Rice seedlings (variety Nihonbare) at the 4 - 5 leaf stage grown in pots were flooded to a depth of 1 cm with water. The test compound was then applied to the water in the pots in an amount corresponding to 100 g per 10 ares. After keeping the seedlings in a greenhouse for 7 days, the water was drained from the pots and the seedlings were inoculated with the fungus, Rhizoctonia solani, by placing 4 - 5 oat grains on which the fungus had previously been cultured around the base of each seedling. The seedlings were then kept in a moist chamber for 5 days at 25 - 27 °C. The disease controlling index was given on the basis of the height of the lesions formed on the rice seedlings.
Except for Table 14F, the compounds tested have the formula (1-1), in which Ar represents the group shown at the beginning of each part of the Table and R^1, R^2, X and Y are as defined in the Table.
as §2

[4] = system: Puccinia recondita; test: Curative activity against leaf rust of wheat (Experiment 6); settings: wheat seedlings (variety Norin No 61), sprayed after inoculation at 3 ppm (30 ml/3 pots), 10 days; diseased area on the first leaf
Method: Wheat seedlings (variety Norin No 61) at the first leaf stage were inoculated with the fungus, Puccinia recondita, by spraying them with a spore suspension of the fungus. They were then kept in a moist chamber for 24 hours at 20 - 22 °C, after which they were moved to a greenhouse at 15 - 20 °C. […] The seedlings were then continuously kept in the greenhouse for 10 days. The disease controlling index was given on the basis of diseased area on the first leaf.

[5] = system: Sphaerotheca fuliginea; test: Preventive activity against powdery mildew of cucumber (Experiment 8); settings: cucumber seedlings sprayed at 300 ppm, inoculated after 24 hours, evaluated after 7 days in greenhouse; diseased area on third and fourth leaves
Method: Cucumber seedlings (variety Sagamihanpaku) at the 3 - 4 leaf stage were sprayed with an aqueous suspension of the test compound at a concentration of 300 ppm (30 ml/3 pots). The seedlings were then kept for 24 hours at room temperature, after which they were inoculated with conidida of Sphaerotheca fuliginea. After keeping the seedlings in a greenhouse for 7 days, the disease controlling index was evaluated on the basis of the diseased area on the third and fourth leaves.

[6] = system: Venturia inaequalis; test: Preventive activity against apple scab (Experiment 9); settings: apple seedlings sprayed at 300 ppm, inoculated after 24 hours, 3 days moist chamber then 10 days greenhouse; diseased area on third and fourth leaves
Method: Apple seedlings at the 3 - 4 leaf stage were sprayed with an aqueous suspension of the test compound at a concentration of 300 ppm (30 ml/3 pots). The seedlings were then kept for 24 hours at room temperature, after which they were inoculated with the fungus, Venturia inaequalis, by spraying a spore suspension of the fungus over the seedlings. After inoculation, the seedlings were kept in a moist chamber for 3 days at 20 - 22 °C and then moved to a greenhouse at 20 - 22°C for 10 days. The disease controlling index was given on the basis of the diseased area on the third and fourth leaves.

[7] = system: Erysiphe graminis f.sp. hordei; test: Curative activity against powdery mildew of barley (Experiment 7); settings: barley seedlings (variety Sekishinriki), sprayed one day after inoculation at 3 ppm (30 ml/3 pots), further 10 days; diseased area on the first leaf
Method: Barley seedlings (variety […]) at the first leaf stage were inoculated with conidia of Erysiphe graminis f.sp. hordei and kept in a greenhouse at 15 - 20°C. After one day, the seedlings were sprayed with an aqueous suspension of the test compound at a concentration of 3 ppm (30 ml/3 pots), and they continued to be kept in the greenhouse at that temperature for a further 10 days. The disease controlling index was given on the basis of the diseased area on the first leaf.

[8] = system: Gibberella Fujikuroi; test: Activity against bakanae disease of rice plants by seed soaking (Experiment 5); parameters: key: 0 = disease as untreated, 5 = no disease (complete control); settings: infected rice seeds (variety Tanginbozu) immersed 3 days in aqueous suspension (concentration not given), 3 weeks; number of diseased seedlings
Method: Ten grams of rice seeds (variety Tanginbozu), infected with Gibberella Fujikuroi, were immersed in 20 ml of an aqueous suspension of the test compound for 3 days. At the end of this time, the treated seeds were densely sown in soil in pots, and the pots were placed in a greenhouse at 20 - 30 °C for 3 weeks. The disease controlling index was given on the basis of the number of diseased seedlings.
as §1, §2

[9] = system: Rhizoctonia solani; test: Preventive activity against sheath blight of rice plants (Experiment 2); parameters: key: 0 = disease as untreated, 5 = no disease (complete control); settings: rice seedlings (variety Nihonbare), sprayed at 100 ppm (30 ml/3 pots) 24 hours before inoculation, 5 days; height of the lesions
Method: Rice seedlings (variety Nihonbare) at the 4 - 5 leaf stage were sprayed with an aqueous suspension of the test compound at a concentration of 100 ppm (30 ml/3 pots). The seedlings were then kept for 24 hours at room temperature, after which they were inoculated with the fungus, Rhizoctonia solani, by placing 4 - 5 oat grains on which the fungus had previously been cultured around the base of each seedling. The seedlings were then kept in a moist chamber for 5 days at 25 - 27 °C. The disease controlling index was given on the basis of the height of the lesions formed on the rice seedlings.
Except in Table 12G, the compounds tested have the formula (1-1), in which Ar represents the group shown at the beginning of each part of the Table and R^1, R^2, X and Y are as defined in the Table.
as §2

[10] = system: Candida albicans; test: ED50 in mice infected with Candida albicans, oral treatment (Experiment 11); settings: 360 h, treated orally, fifteen days after infection
Method: Groups of mice (each group contained 10 mice) were inoculated with 7 to 9 x 10^6 spores per mouse of Candida albicans. 1, 4, and 24 hours after the inoculation, each mouse was orally administered 20 mg/kg of the test compound each time. The anti-fungal activity was assessed by the survival rate 9 days after infection. The survival rate was recorded as 0% 2 days after infection in an untreated (control) group. […] Following essentially the same procedure as that described in Experiment 10, mice were infected with Candida albicans, and treated orally with various compounds of the invention, as shown in the following Table 21. Fifteen days after infection (or fourteen days in the case of the compounds of Example Nos. 5 and 10), ED50 values were determined and are reported in the following Table 21.

Row | SMILES | disease controlling index [1] | disease controlling index [2] | disease controlling index [3] | disease controlling index [4] | Index (disease controlling index) [5] | Index (disease controlling index) [6] | disease controlling index [7] | disease controlling index [8] | disease controlling index [9] | ED50 [10]
1 | C[C@@H](N=[N+]=[N-])[C@](O)(Cn1cncn1)c1ccc(Cl)cc1Cl (relative stereo) [Example 2, (2R*, 3R*)-3-Azido-2-(2,4-dichlorophenyl)-l-(lH-1,2,4-triazol-1-yl)-2-butanol] | 4 (disease rate is less than 10% of the untreated plant) | 5 | 5 | 5 | 5 | 5 | – | – | – | –
2 | C[C@@H](NC(=O)c1ccc(C(F)(F)F)cc1)[C@](O)(Cn1cncn1)c1ccc(F)cc1F (relative stereo) [Example 17, (2R*, 3R*)-2-(2,4-0ifluorophenyl)-1-(1H-1,2,4-triazol-1-yl)-3-(4-trifluoromethylbenzoylamino)-2-butanol] | 5 | 4 (disease rate is less than 10% of the untreated plant) | – | 5 | 4 (disease rate is less than 10% of the untreated plant) | – | 5 | 4 (disease rate is less than 10% of the untreated plant) | 4 (disease rate is less than 10% of the untreated plant) | 0.86 mg/kg
3 | C[C@@H](CCN=[N+]=[N-])[C@](O)(Cn1cncn1)c1ccc(F)cc1F (relative stereo) [Example 81, (2R*, 3S*)-5-Azido-2-(2,4-difluorophenyl)-3-methyl-1-(1H-1,2,4-triazol-1-yl)-2-pentanol] | 5 | 5 | 4 (disease rate is less than 10% of the untreated plant) | 5 | – | – | – | 5 | 5 | –
4 | CC(N=[N+]=[N-])[C@H](C)[C@](O)(Cn1cncn1)c1ccc(F)cc1F (single isomer, unassigned) [83 (C-4 isomer 1), (2R*, 3S*)-4-Azido-2-(2,4-difluorophenyl)-3-methyl-1-(1H-1,2,4-triazol-1-yl)-2-pentanol] | 5 | 5 | 5 | 5 | 5 | 5 | 5 | 5 | 5 | –
5 | CC(N=[N+]=[N-])[C@H](C)[C@](O)(Cn1cncn1)c1ccc(F)cc1F (single isomer, unassigned) [83 (oxalate, C-4 isomer 2), (2R*, 3S*)-4-Azido-2-(2,4-difluorophenyl)-3-methyl-1-(1H-1,2,4-triazol-1-yl)-2-pentanol] | 5 | 5 | 4 (disease rate is less than 10% of the untreated plant) | 5 | 5 | 5 | 5 | 5 | 5 | –
6 | C[C@@H](NC(=O)c1ccc(C(F)(F)F)cc1F)[C@](O)(Cn1cncn1)c1ccc(F)cc1F [Example 65] | 5 | 5 | – | 5 | 5 | – | 5 | 4 (disease rate is less than 10% of the untreated plant) | 5 | < 0.625 mg/kg
7 | C[C@@H](NC(=O)c1ccc(C#N)cc1)[C@](O)(Cn1cncn1)c1ccc(F)cc1F [Example 67] | – | 4 (disease rate is less than 10% of the untreated plant) | – | 4 (disease rate is less than 10% of the untreated plant) | 5 | – | 4 (disease rate is less than 10% of the untreated plant) | – | 4 (disease rate is less than 10% of the untreated plant) | 1.25 mg/kg
8 | C[C@@H](N=[N+]=[N-])[C@](O)(Cn1cncn1)c1ccc(F)cc1F [Example 99, (2R, 3R)-3-Azido-2-(2,4-difluorophenyl)-1-(1H-1,2,4-triazol-1-yl)-2-butanol] | 5 | 5 | 4 (disease rate is less than 10% of the untreated plant) | – | 5 | 5 | – | 5 | – | –
9 | C[C@@H](NC(=O)c1ccc(C(F)(F)F)cc1)[C@](O)(Cn1cncn1)c1ccc(Cl)cc1 [Example 103, (2R, 3R)-2-(4-Chlorophenyl)-1-(1H-1,2,4-triazol-1-yl)-3-[(4-trifluoromethyl)benzoylamino]-2-butanol] | – | – | – | – | – | – | – | – | – | 0.48 mg/kg
10 | CC(=O)N1CCN(c2ccc(OCC3COC(Cn4ccnc4)(c4ccc(Cl)cc4Cl)O3)cc2)CC1 (stereo not drawn) [ketoconazole, reference compound] | – | – | – | – | – | – | – | – | – | 31.4 mg/kg
